Measured values: the supplement of paper PMC10307832

Legend:
Assay in all cases: relative viability (nuclei count vs DMSO), 5 days (fraction); higher = more cells survive
[1] = compound: COc1cc(Nc2ncc(F)c(Nc3ccc4c(n3)NC(=O)C(C)(C)O4)n2)cc(OC)c1OC [R406] + Cc1nc(Nc2ncc(C(=O)Nc3c(C)cccc3Cl)s2)cc(N2CCN(CCO)CC2)n1 [Dasatinib] (partner 0.075 µM)
How it was run: (§1)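 The day after seeding in 1536-well plates, lung cancer cell lines were treated by pin tool with a single drug, or with a fixed anchor-drug dose together with five library-drug doses (not always all listed) in √10 steps. After 5 days, a combined fix-and-stain solution (final 0.05% Triton X-100, 1% formaldehyde, 1 ug/ml Hoechst) was added. Nuclei counted on 4× images gave relative viability as treated counts over vehicle counts, reported as the median of duplicate plates.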

[2] = compound: O=C(/C=C/c1cccnc1)NCCCCC1CCN(C(=O)c2ccccc2)CC1 [Daporinad] + COc1cc2c(Oc3ccc(NC(=O)C4(C(=O)Nc5ccc(F)cc5)CC4)cc3F)ccnc2cc1OCCCN1CCOCC1 [Foretinib] (partner 0.25 µM)
How it was run: as §1

[3] = compound: COc1cc(Nc2ncc(F)c(Nc3ccc4c(n3)NC(=O)C(C)(C)O4)n2)cc(OC)c1OC [R406] + Cc1nc(NC(=O)N2CCC[C@H]2C(N)=O)sc1-c1ccnc(C(C)(C)C(F)(F)F)c1 [Alpelisib] (partner 2 µM)
How it was run: as §1

[4] = compound: O=C(/C=C/c1cccnc1)NCCCCC1CCN(C(=O)c2ccccc2)CC1 [Daporinad] + C[C@@H](Oc1cc(-c2cnn(C3CCNCC3)c2)cnc1N)c1c(Cl)ccc(F)c1Cl [Crizotinib] (partner 1 µM)
How it was run: as §1

Cell Line	relative viability ([1]; first compound 0.08 µM)	relative viability ([1]; first compound 0.253 µM)	relative viability ([1]; first compound 0.8 µM)	relative viability ([1]; first compound 2.53 µM)	relative viability ([1]; first compound 8 µM)	relative viability ([2]; first compound 0.0005 µM)	relative viability ([2]; first compound 0.001581 µM)	relative viability ([2]; first compound 0.005 µM)	relative viability ([2]; first compound 0.01581 µM)	relative viability ([3]; first compound 0.08 µM)	relative viability ([3]; first compound 0.253 µM)	relative viability ([3]; first compound 0.8 µM)	relative viability ([3]; first compound 2.53 µM)	relative viability ([3]; first compound 8 µM)	relative viability ([4]; first compound 0.0005 µM)	relative viability ([4]; first compound 0.001581 µM)	relative viability ([4]; first compound 0.005 µM)	relative viability ([4]; first compound 0.01581 µM)
NCI-H322M	0.237	0.245	0.26	0.24	0.208	0.964	1.13	0.886	0.478	0.811	0.807	0.774	0.375	0.457	0.847	1.03	0.985	0.592
NCI-H358	0.165	0.171	0.113	0.143	0.132	0.689	0.898	0.827	0.545	0.877	0.908	1	0.373	0.234	0.693	0.709	0.684	0.562
NCI-H441	0.669	0.659	0.851	0.429	0.318	1.24	0.997	1.19	0.911		0.843	0.878		0.296	0.79	0.916	1.1	1.15
NCI-H460	0.477	0.584	0.586	0.323	0.257	1.07	1.04	0.968	1.02	0.495	0.476	0.665		0.0573	1.02	0.91	1.17	0.897
NCI-H520	0.209	0.235	0.223	0.198	0.189	0.815	0.384	0.324	0.181	0.913	1.09	0.779	0.316	0.525	0.789	0.726	0.258	0.114
NCI-H596	0.619	0.61	0.686	0.505	0.173	0.864	0.965	0.819	0.325	0.486	0.53	0.621	0.387	0.183	1.05	1.02	1.12	0.677
NCI-H647	0.168	0.161	0.251	0.108	0.0646	1.32	1.18	1.06	1.28	0.977	1.03	1.52	0.461	0.12	1.27	0.974	1.43	1.11
NCI-H650	0.463	0.513	0.483	0.426	0.425	1.08	1.09	1.01	1.08	1.25	1.04	1.16	0.87	0.802	0.736	0.749	0.75	0.798
NCI-H661	0.847	0.824	1.1	0.684	0.402	0.999	1.03	0.671	0.573	0.299	0.878	0.877	0.597	0.274	0.975	0.998	1.04	0.52
NCI-H727	0.347	0.432	0.369		0.3	1.01	0.908	0.899	0.691	0.56	0.574	0.61	0.497	0.245	0.713	0.786	0.938	0.698
NCI-H838	0.25	0.287	0.52	0.204	0.219	1.06	1.11	0.965	0.567	0.971	1.11	1.16	0.547	0.541	0.886	0.92	0.959	0.675
NCI-H1355	0.754	0.79	0.777	0.491	0.32	0.997	1.01	1.06	1.02	0.838	0.917	0.985	0.547	0.497	1.08	1.1	1.22	1.1
NCI-H1437	0.439	0.408	0.369	0.286	0.131	1.17	1.24	1.34	1.22	1	1.09	1.17	0.928	0.487	0.795	0.956	1.02	0.855
NCI-H1563	0.438	0.507	0.448	0.473	0.376	0.893	0.972	0.999	0.86	0.938	0.996	0.924	0.682	0.634	0.85	0.857	0.772	0.623
NCI-H1651	0.402	0.468	0.451	0.221	0.198	0.722	0.769	0.623	0.595	0.9	1.03	1.04	0.699	0.512	0.881	0.875	0.825	0.807
NCI-H1666	0.811	0.943	0.891	0.648	0.409	0.962	0.958	0.91	0.943	1.11	0.953	1.02	0.786	0.385	1.25	1.06	1.03	0.97
NCI-H1734	0.537	0.559	0.459	0.393	0.27	0.871	0.875	0.938	0.679	0.67	0.732	0.748	0.521	0.465	0.713	0.715	0.737	0.464
NCI-H1755	0.401	0.508	0.407	0.264	0.135	0.928	0.46	0.848	0.966	0.834	1.05	1.04	0.632	0.21	0.83	0.859	0.919	0.843
